The numbers were not newly measured in patent US11202800B1, “Methods for treating emotional cognitive disconnect” (priority 2013, dated 2021), which cites them from elsewhere.

Series [1] deals with Ca^2+ plus calmodulin-stimulated reactions. Particulars: in rats.
Series [2] relates to Ca^2+ plus calmodulin dependent phosphorylation of synapsin I. As to conditions: in rats.

For `[Mg+2]` [Mg^2+, magnesium], the “Mg^2+ concentration range in which Ca^2+ plus calmodulin-stimulated reactions are maximally active” value in series [1] was 30 to 50 mM. Further, the “Mg^2+ concentration above which Ca^2+ plus calmodulin dependent phosphorylation of synapsin I is progressively inhibited” value in series [2] is reported as “above 5 mM”.
